The values that follow come from US11247976B2, “Synthetic ligands that modulate the activity of the RhlR quorum sensing receptor” (Wisconsin Alumni Research Foundation, priority 2016, dated 2022).

Assay [1] deals with T1, RhlR (Pseudomonas aeruginosa, UniProt P54292).
T1 construct: expressed in transfected cells; host or cells: E. coli JLD271 (ΔsdiA) with pJN105R2 (arabinose-induced) and pSC11-rhlI*
Nature of the assay: E. coli RhlR reporter agonism assay (JLD271/pJN105R2/pSC11-rhlI*). Particulars: for activation at 10 µM: compound at 10 μM, RhlR activity relative to 1 mM BHL; for Emax: read-out: Maximum Activation (%). Format: cell-based, P. aeruginosa.

Assay [2] has as its target T1, RhlR. Nature of the assay: P. aeruginosa RhlR reporter agonism assay (PAO-JP2/prhlI-LVAgfp). The assay is classed as cell-based. Particulars: for Emax: read-out: Maximum Activation (%).
For assay [3], the target named is T1, RhlR. Described as above. Format: cell-based. To be noted: P. aeruginosa reporter compared with E. coli reporter. The procedure: All media and reagents for bacterial culture were purchased from commercial sources. Bacteria were cultured in Luria-Bertani broth (LB) at 37° C. with shaking at 200 rpm unless otherwise noted. The bacterial reporter strains used for this study were (i) the heterologous E. coli strain JLD271 (ΔsdiA) harboring the RhlR expression plasmid pJN105R2 and the rhlI-lacZ transcriptional fusion reporter pSC11-rhlI*, (ii) the heterologous E. coli strain JLD271 (ΔsdiA) harboring the LasR expression plasmid pJN105L and the […] transcriptional fusion reporter pSC11, and (iii) the P. aeruginosa strain PAO-JP2 (ΔlasrhlI) harboring the rhlI-gfp transcriptional fusion reporter prhlI-LVAgfp. Reporter strains JLD271/pJN105R2/pSC11-rhlI* and JLD271/pJN105L/pSC11 were grown in LB containing 100 μg/mL ampicillin and 10 μg/mL gentamicin. Freezer stocks of bacterial strains were maintained at −80° C. in 1:1 LB:50% glycerol.
To evaluate the RhlR-modulatory activities of selected compounds in P. aeruginosa, the ΔlasIrhlI strain PAO-JP2 harboring plasmid prhlI-LVAgfp was used as previously reported.^38 Briefly, a subculture was prepared by diluting an overnight culture 1:100 in fresh LB and was grown to OD600=0.3. […] Subculture was treated with 100 nM OdDHL (to induce native expression of RhlR) by adding the appropriate amount of OdDHL stock solution in DMSO. The subculture was then dispensed ([…] aliquots) into each synthetic compound-containing well of the microtiter plate.
Plates were incubated at 37° C. for 6 h, and GFP production was monitored by using a Synergy 2 plate reader (λex=500 nm, λem=540 nm; BioTek, Winooski, Vt.) and quantified with Gen5 1.05 software (BioTek). The final OD600 for each well was measured to normalize GFP production to cell density. All synthetic compounds were tested in triplicate, and three separate trials were performed with unique cultures. Agonism dose-response analyses were performed by testing compounds over a range of concentrations with the RhlR reporter.
Library compounds J18 and J24, as well as controls BHL and S4, were evaluated for potency in the native genetic background of RhlR by using the P. aeruginosa strain PAO-JP2 (ΔlasIrhlI) harboring the RhlR reporter plasmid prhlI-LVAgfp (Table 3). Because the production of RhlR is dependent on LasR (in LB medium), all assays were performed in the presence of 100 nM OdDHL, enabling immediate transcription of RhlR via LasR activation. […] All compounds also retained similar potencies when screened in the P. aeruginosa background.

“Also recorded” adds a separate entry of the source. Some results are limits rather than exact numbers.

T1 sequence (P54292 whole entry): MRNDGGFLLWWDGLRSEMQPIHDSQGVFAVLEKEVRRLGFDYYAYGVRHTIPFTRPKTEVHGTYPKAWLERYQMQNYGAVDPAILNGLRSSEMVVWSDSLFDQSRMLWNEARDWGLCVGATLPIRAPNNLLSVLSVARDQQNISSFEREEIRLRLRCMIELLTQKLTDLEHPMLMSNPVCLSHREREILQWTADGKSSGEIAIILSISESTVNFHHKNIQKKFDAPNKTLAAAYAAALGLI

One may read the EC50 as the concentration giving half of the maximal effect. Read a low EC50 as a more potent agent. In the case of `O=C(N[C@H]1CCCC1=O)C1CCC1` [RN12], in assay [1], the EC50 worked out at 5.94 µM and the Emax is 93%. Besides, in assay [1] (E. coli reporter), the activation at 10 µM was over 50%. Further, in assay [2], the midpoint of the response, the EC50, lay at 7.35 µM and the Emax came to 96%. Further, the “RhlR agonist potency in words” value in assay [3] is reported as “maintained activity between the two different reporters”.

The compound `O=C(COc1ccc(I)cc1)N[C@H]1CCSC1=O` [RN22] yielded an activation at 10 µM in assay [1] (E. coli reporter) of 1%.

On to `CC(C)CC(=O)N[C@H]1CCCC1=O` [RN36], for which, in assay [1], the EC50 stood at 7.58 µM and the Emax came out at 101%. Also, the activation at 10 µM in assay [1] (E. coli reporter) was over 50%. In addition, in assay [2], the 50% effective concentration (EC50) stood at 11.2 µM and the Emax came out at 96%. For the same compound, the “RhlR agonist potency in words” value in assay [3] is “not able to retain potency”.

Turning to `CC(C)CC(=O)N[C@H]1CCSC1=O` [RN37], the EC50 worked out at 0.463 µM in assay [1] and 2.58 µM in assay [2]. Moreover, the “RhlR agonist potency in words” value in assay [1] (dose-response, E. coli reporter) is “improves potency two-fold over the homoserine lactone variant; also recorded: most potent RhlR agonist found in the E. coli reporter”; in assay [3] it was “not able to retain potency”. For the same compound, the Emax in assay [1] worked out at 93%; in assay [2], 91%.
